melting point	Compound
48 to 51 °C	O=C=Nc1ccc2c(c1)OCO2
59 to 61 °C	CCN(CC)C(=O)c1ccc(S(=O)(=O)Cl)cc1
106 to 108 °C	COc1ccc(NC(C)=O)cc1N
184 to 186 °C	O=C(O)c1ccc(OC2CCCCC2)cc1
144 to 146 °C	CS(=O)(=O)c1cccc(C(=O)NN)c1
100 to 104 °C	Cc1csc2nc(CCl)cc(=O)n12
183 to 185 °C	O=C(O)c1cc(S(=O)(=O)N2CCOCC2)ccc1I
152 to 154 °C	CCOC(=O)C1=C(CC)Nc2ccccc2N=C1N
218 to 220 °C	Cc1cc(C(N)C(=O)O)ccc1Cl (stereo unspecified)
147 to 149 °C	Cc1cc([N+](=O)[O-])ccc1NC(=O)CCCl
79 to 81 °C	CN(C)C(=N)CC#N
112 to 114 °C	O=Cc1ccccc1OCC(=O)N1CCCC1
96 to 98 °C	NNC(=S)NC1CCC1
101 to 103 °C	COC(=O)C(=O)CC(=O)c1ccc(OC)cc1F
249 to 251 °C	NC1=NNC(=O)C1c1ccccc1 (stereo unspecified)
209 to 211 °C	O=C(Nc1ccc(Br)cc1)C1CCNCC1
178 to 180 °C	Cc1n[nH]c(C)c1S(=O)(=O)N1CCC(C)CC1
151 to 153 °C	O=C(O)CCCc1ccc2c(c1)-c1ccccc1C2
141 to 143 °C	COCCOc1ccc(C(N)=S)cc1
185 to 187 °C	Cc1cc(NC(N)=O)ccc1Br
84 to 86 °C	COc1ccccc1NCCC(=O)O
159 to 161 °C	COc1ccc(Cl)c(NC(=O)NN)c1
125 to 127 °C	CC(=O)c1ccc(OCC(=O)N(C)C)cc1

Further lines, the compound ahead of its results:

Compound	melting point
O=C(CCl)NC(c1ccccc1)c1ccc2[nH]c(C(F)(F)F)nc2c1 (stereo unspecified)	193 to 195 °C
CN(C)S(=O)(=O)c1cccc(C(=O)O)c1	146 to 150 °C
Nc1nnc(Cc2ccc(Cl)cc2)o1	167 to 169 °C
Nc1nnc(-c2cccc3ccccc23)o1	184 to 186 °C
Nc1ccc(C=CC(=O)O)cn1	189 to 191 °C
Nc1cccc(C(=O)NCc2ccccn2)c1	119 to 121 °C
N#Cc1cc(C(F)(F)F)ccc1-n1cncn1	114 to 116 °C
Cc1c(C#N)c(NC(=O)CCl)n(Cc2ccc(F)cc2)c1C	279 to 281 °C
CC(C)CS(=O)(=O)CCC(=O)O	110 to 112 °C
O=C(O)c1csc(-c2ccco2)n1	181 to 183 °C
N#CCC(=O)c1ccc(C(F)(F)F)cc1	48 to 50 °C
Cn1cncc1C#N	48 to 50 °C
O=C(O)c1cc2cc(Br)ccc2[nH]1	283 to 285 °C
O=[N+]([O-])c1n[nH]cc1Br	193 to 195 °C
Nc1ccc(S(=O)(=O)Nc2ccc([N+](=O)[O-])cc2)cc1	162 to 164 °C
COc1cc(C(=O)O)ccc1OCc1ccccc1Cl	143 to 145 °C
O=C(O)c1cc(C2CC2)nc2onc(-c3ccccc3)c12	213 to 215 °C

Compound	melting point
Clc1ccc2nccnc2n1	148 to 150 °C
Cc1[nH]c(=O)[nH]c(=O)c1CCC(=O)O	306 to 308 °C
O=[N+]([O-])c1ccc(O)c(-n2cnnn2)c1	199 to 201 °C
Cc1ccc(/C=C/C(=O)O)c(C)c1	182 to 184 °C
O=C(O)c1cc(F)cc(S(=O)(=O)Cl)c1Br	186 to 188 °C
COc1ccc(NS(=O)(=O)c2ccc(N3CCCCC3)c(N)c2)cc1	111 to 113 °C
CC(Cl)C(=O)Nc1ccc(NC(=O)c2cccs2)cc1 (stereo unspecified)	227 to 229 °C
Cc1nn(C2CCS(=O)(=O)C2)c(C)c1C=O (stereo unspecified)	122 to 124 °C
O=C(Nc1ccc(F)cc1)OCC(F)(F)F	76 to 80 °C
Cc1nc(N2CCCCC2)sc1C=O	113 to 115 °C
Cc1cc(Br)c(O)c(C(=O)O)c1	201 to 203 °C
Cc1coc(-c2ccc(C)c(N)c2)n1	114 to 116 °C
O=[N+]([O-])c1ccn(C2CCCCC2O)n1 (stereo unspecified)	94 to 96 °C
O=C(O)c1sccc1S(=O)(=O)Nc1ccc(F)cc1	180 to 182 °C
Clc1cc[nH]n1	68 to 70 °C
CN1CCN(C(=O)Cn2cc(N)cn2)CC1	119 to 121 °C

Source: a melting point compilation (Tetko et al.)
